The pIC50 is the IC50 on a negative log10 scale, so that one unit is a factor of ten. Low readings indicate a large IC50, high ones a small IC50.

pIC50: −log10 of the molar value.

One assay concerns Human Leukemia Cell K562. The experiment in a line: Inhibitory effects on Human Leukemia Cell K562 (MTT). The following applies: Homo sapiens, K562 cells, 72 h~120 h. It counts as cell-based. Here is the method:
K562 cells were seeded in RPMI1640 cell culture solution containing 10% of fetal calf serum (supplemented with 100 ku/L of penicillin and streptomycin each). Culture dish was placed in the cell incubator under 5% of CO2 at 37° C. The culture solution was centrifuged and replaced every 2-3 days to passage and collect cells.
Cells in logarithmic growth phase were formulated into the cell suspensions at the required concentration with RPMI1640 culture solution containing 10% fetal calf serum. The resulting mixture was added to 96-wells cell culture plate at 3,000 cells per well (100 μl); after 12 hours of culture, to each well was added different amount of stock solution. The final concentrations of the samples are 100 μg/ml, 10 μg/ml, 1 μg/ml, […], and 0.01 μg/ml respectively in triplicate. After 72 h˜120 h, supernatant was discarded. To each well was added […] fresh serum-free culture solution containing 5 mg/ml blue tetrazolium (MTT). After culturing for 4 hours at 37° C., the mixture was centrifuged at 3000 rpm/min and the supernatant was discarded. Formazan was dissolved with 200 μl DMSO. After vortex oscillation for 1 min, absorbance value (OD-value) was measured on microplate reader at the wavelength of 570/450 nm. Inhibition ratio=(control group OD-value−drug group OD-value)/control group OD-value×100%.
`Cc1ccc(C(=O)Nc2ccc(C)c(NC(=O)/C=C/c3cccnc3)c2)cc1` [compound 1, N-(4-methyl-3-(3-(pyridin-3-yl)acrylamido)phenyl)-4-methylbenzamide] had a negative logarithm of the IC50 (pIC50) of more than 8.57. Still for that read-out and setting: under `Cc1ccc(NC(=O)c2ccc(F)cc2)cc1NC(=O)/C=C/c1cccnc1` [compound 2, N-(4-methyl-3-(3-(pyridin-3-yl)acrylamido)phenyl)-4-fluoro benzamide] stands more than 8.57; under `Cc1ccc(NC(=O)c2ccc(F)cc2F)cc1NC(=O)/C=C/c1cccnc1` [compound 3, N-(4-methyl-3-(3-(pyridin-3-yl)acrylamido)phenyl)-2,4-difluoro benzamide], more than 8.60. On the same count and under the same terms, under `Cc1ccc(NC(=O)c2ccc(Cl)cc2Cl)cc1NC(=O)/C=C/c1cccnc1` [compound 4, N-(4-methyl-3-(3-(pyridin-3-yl)acrylamido)phenyl)-2,4-dichloro benzamide] stands 7.70 to 8.70; under `Cc1ccc(NC(=O)c2cc(C(F)(F)F)cc(C(F)(F)F)c2)cc1NC(=O)/C=C/c1cccnc1` [compound 5, N-(4-methyl-3-(3-(pyridin-3-yl)acrylamido)phenyl)-3,5-bis-(trifluoromethyl)benzamide], 7.70 to 9.00. Turning to `Cc1ccc(NC(=O)c2ccc(C)c(C(F)(F)F)c2)cc1NC(=O)/C=C/c1cccnc1` [compound 7, N-(4-methyl-3-(3-(pyridin-3-yl)acrylamido)phenyl)-3-(rifluoromethyl)-4-methyl benzamide], the negative-log IC50 (pIC50) was more than 9.00. Same read-out and setting: under `Cc1ccc(NC(=O)c2cc(F)cc(C(F)(F)F)c2)cc1NC(=O)/C=C/c1cccnc1` [compound 10, N-(4-methyl-3-(3-(pyridin-3-yl)acrylamido)phenyl)-3-fluoro-5-(trifluoromethyl)benzamide] stands more than 9.00; under `Cc1ccc(NC(=O)c2ccc(CN3CCN(C)CC3)cc2)cc1NC(=O)/C=C/c1cccnc1` [compound 11, N-(4-methyl-3-(3-(pyridin-3-yl)acrylamido)phenyl)-4-((4-methylpiperazin-1-yl)methyl)benzamide], more than 8.70; under `Cc1ccc(NC(=O)c2ccc(CN3C[C@@H](C)N[C@@H](C)C3)cc2)cc1NC(=O)/C=C/c1cccnc1` [compound 12], more than 8.30. Regarding `CCN1CCN(Cc2ccc(C(=O)Nc3ccc(C)c(NC(=O)/C=C/c4cccnc4)c3)cc2)CC1` [compound 13, N-(4-methyl-3-(3-(pyridin-3-yl)acrylamido)phenyl)-4-((4-ethylpiperazin-1-yl)methyl)benzamide], the negative-log IC50 (pIC50) is 8.70. Same read-out and setting: under `Cc1ccc(NC(=O)c2ccc(CN3CCN(C)CC3)c(C(F)(F)F)c2)cc1NC(=O)/C=C/c1cccnc1` [compound 19, N-(4-methyl-3-(3-(pyridin-3-yl)acrylamido)phenyl)-4-((4-methylpiperazin-1-yl)methyl)-3-(trifluoromethyl)benzamide] stands more than 9.00. Same read-out and setting: under `CCN1CCN(Cc2ccc(C(=O)Nc3ccc(C)c(NC(=O)/C=C/c4cccnc4)c3)cc2C(F)(F)F)CC1` [compound 20, N-(4-methyl-3-(3-(pyridin-3-yl)acrylamido)phenyl)-4-((4-ethylpiperazin-1-yl)methyl)-3-(trifluoromethyl)benzamide] stands more than 9.00; under `Cc1ccc(NC(=O)c2ccc(CN3CCOCC3)c(C(F)(F)F)c2)cc1NC(=O)/C=C/c1cccnc1` [compound 21, N-(4-methyl-3-(3-(pyridin-3-yl)acrylamido)phenyl)-4-(morpholin-4-ylmethyl)-3-(trifluoromethyl)benzamide], 8.70. As to `Cc1ccc(NC(=O)c2ccc(CN3CC[C@@H](N(C)C)C3)c(C(F)(F)F)c2)cc1NC(=O)/C=C/c1cccnc1` [compound 22, N-(4-methyl-3-(3-(pyridin-3-yl)acrylamido)phenyl)-4-(((R)-3-(dimethylamino)pyrrolidin-1-yl)methyl)-3-(trifluoromethyl)benzamide], the pIC50 is more than 9.00. Still for that read-out and setting: under `Cc1ccc(NC(=O)c2ccc(CN3CCC(N(C)C)C3)c(C(F)(F)F)c2)cc1NC(=O)/C=C/c1cccnc1` [compound 23, N-(4-methyl-3-(3-(pyridin-3-yl)acrylamido)phenyl)-4-(((S)-3-(dimethylamino)pyrrolidin-1-yl)methyl)-3-(trifluoromethyl)benzamide] stands more than 9.00; under `Cc1ccc(NC(=O)c2ccc(CN3CCCN(C)CC3)c(C(F)(F)F)c2)cc1NC(=O)/C=C/c1cccnc1` [compound 25, N-(4-methyl-3-(3-(pyridin-3-yl)acrylamido)phenyl)-4-((4-methyl-1,4-homopiperazin-1-yl)methyl)-3-(trifluoromethyl)benzamide], 7.70 to 8.70; under `Cc1ccc(NC(=O)c2ccc(CN3CCN(C)CC3)c(Br)c2)cc1NC(=O)/C=C/c1cccnc1` [compound 26, N-(4-methyl-3-(3-(pyridin-3-yl)acrylamido)phenyl)-4-((4-dimethylpiperazin-1-yl)methyl)-3-bromobenzamide], 7.70 to 8.70. Same read-out and setting: under `Cc1ccc(NC(=O)c2cc(C(F)(F)F)cc(C(F)(F)F)c2)cc1NC(=O)/C=C/c1cncnc1` [compound 31, N-(4-methyl-3-(3-(pyrimidin-5-yl)acrylamido)phenyl)-3,5-bis-(trifluoromethyl)benzamide] stands more than 9.00; under `Cc1ccc(NC(=O)c2ccc(C)c(C(F)(F)F)c2)cc1NC(=O)/C=C/c1cncnc1` [compound 32, N-(4-methyl-3-(3-(pyrimidin-5-yl)acrylamido)phenyl)-4-methyl-3-(trifluoromethyl)benzamide], more than 9.00; under `Cc1ccc(NC(=O)c2cc(F)cc(C(F)(F)F)c2)cc1NC(=O)/C=C/c1cncnc1` [compound 33, N-(4-methyl-3-(3-(pyrimidin-5-yl)acrylamido)phenyl)-5-fluoro-3-(trifluoromethyl)benzamide], more than 9.00. Still for that read-out and setting: under `Cc1ccc(NC(=O)c2ccc(CN3CCN(C)CC3)c(C(F)(F)F)c2)cc1NC(=O)/C=C/c1cncnc1` [compound 39, N-(4-methyl-3-(3-(pyrimidin-5-yl)acrylamido)phenyl)-4-((4-methylpiperazin-1-yl)methyl)-3-(trifluoromethyl)benzamide] stands more than 9.00; under `Cc1ccc(NC(=O)c2ccc(CN3CC[C@@H](N(C)C)C3)c(C(F)(F)F)c2)cc1NC(=O)/C=C/c1cncnc1` [compound 42, N-(4-methyl-3-(3-(pyrimidin-5-yl)acrylamido)phenyl)-4-(((R)-3-(dimethylamino)pyrrolidin-1-yl)methyl)-3-(trifluoromethyl)benzamide], more than 9.00. On to `Cc1ccc(NC(=O)c2ccc(CN3CCC(N(C)C)C3)c(C(F)(F)F)c2)cc1NC(=O)/C=C/c1cncnc1` [compound 43, N-(4-methyl-3-(3-(pyrimidin-5-yl)acrylamido)phenyl)-4-(((S)-3-(dimethylamino)pyrrolidin-1-yl)methyl)-3-(trifluoromethyl)benzamide], for which the pIC50 is more than 9.00. `Cc1ccc(C(=O)Nc2ccc(F)c(Cl)c2)cc1NC(=O)/C=C/c1cccnc1` [compound 50, N-(3-chloro-4-fluorophenyl)-4-methyl-3-(3-(pyridin-3-yl)acrylamido)benzamide] had a negative logarithm of the IC50 (pIC50) of 7.70 to 8.70. The compound `Cc1ccc(C(=O)Nc2cccc(C(F)(F)F)c2)cc1NC(=O)/C=C/c1cccnc1` [compound 51, N-(3-(trifluoromethyl)phenyl)-4-methyl-3-(3-(pyridin-3-yl)acrylamido)benzamide] had a negative-log IC50 (pIC50) of more than 8.70. Still for that read-out and setting: under `Cc1ccc(C(=O)Nc2ccc(Br)cc2F)cc1NC(=O)/C=C/c1cccnc1` [compound 52, N-(4-bromo-2-fluorophenyl)-4-methyl-3-(3-(pyridin-3-yl)acrylamido)benzamide] stands more than 8.70; under `Cc1ccc(C(=O)Nc2ccc(OC(F)(F)F)cc2)cc1NC(=O)/C=C/c1cccnc1` [compound 53, N-(4-(trifluoromethoxy)phenyl)-4-methyl-3-(3-(pyridin-3-yl)acrylamido)benzamide], more than 9.00; under `Cc1cn(-c2ccc(NC(=O)c3ccc(C)c(NC(=O)/C=C/c4cccnc4)c3)cc2C(F)(F)F)cn1` [compound 55, N-(4-(4-methyl-1H-imidazol-1-yl)-3-(trifluoromethyl)phenyl)-4-methyl-3-(3-(pyridin-3-yl)acrylamido)benzamide], more than 8.70. On to `Cc1ccc(C(=O)Nc2ccc(Cl)c(Cl)c2)cc1NC(=O)/C=C/c1cccnc1` [compound 56, N-(3,4-dichlorophenyl)-4-methyl-3-(3-(pyridin-3-yl)acrylamido)benzamide], for which the pIC50 was 7.70 to 8.70. Same read-out and setting: under `Cc1ccc(C(=O)Nc2cc(C(F)(F)F)ccc2Cl)cc1NC(=O)/C=C/c1cccnc1` [compound 57, N-(2-chloro-5-(trifluoromethyl)phenyl)-4-methyl-3-(3-(pyridin-3-yl)acrylamido)benzamide] stands 7.70 to 8.70.

Still in this assay, the particulars now being: K562 cells, 72 h~120 h.
In the case of `Cc1ccc(NC(=O)c2ccc(CN3CCC(N(C)C)C3)c(C(F)(F)F)c2)cc1NC(=O)/C=C/c1cccnc1` (centres unmarked) [compound 24, N-(4-methyl-3-(3-(pyridin-3-yl)acrylamido)phenyl)-4-((3-(dimethylamino)pyrrolidin-1-yl)methyl)-3-(trifluoromethyl)benzamide], the pIC50 is more than 9.00. Still for that read-out and setting: under `Cc1ccc(NC(=O)c2ccc(CN3CCC(N(C)C)C3)c(C(F)(F)F)c2)cc1NC(=O)/C=C/c1cncnc1` (centres unmarked) [compound 44, N-(4-methyl-3-(3-(pyrimidin-5-yl)acrylamido)phenyl)-4-((3-(dimethylamino)pyrrolidin-1-yl)methyl)-3-(trifluoromethyl)benzamide] stands more than 9.00.

(Values after US8426446B2, “Acrylamide derivative and use thereof in manufacture of medicament” (Beijing Shiqiao Biopharm Co. Ltd., priority 2009, dated 2013).)
